According to patent US20150105252A1, “SUBSTITUTED PYRAZOLES AS HERBICIDES” (E I DU PONT DE NEMOURS AND COMPANY, priority 2013, published 2015):

Experiments:
blackgrass = assay: Test D postemergence; assay type: in vivo, Alopecurus myosuroides; details: scale 0 to 100
Text: (§1) Seeds of plant species selected from bluegrass (annual bluegrass, Poa annua), blackgrass (Alopecurus myosuroides), canarygrass (littleseed canarygrass, Phalaris minor), chickweed (common chickweed, Stellaria media), galium (catchweed bedstraw, Galium aparine), bromegrass, downy (downy bromegrass, Bromus tectorum), field poppy (Papaver rhoeas), field violet (Viola arvensis), foxtail, green (green foxtail, Setaria viridis), deadnettle (henbit deadnettle, Lamium amplexicaule), ryegrass, Italian (Italian ryegrass, Lolium multiflorum), kochia (Kochia scoparia), lambsquarters (Chenopodium album), oilseed rape (Brassica napus), pigweed (redroot pigweed, Amaranthus retroflexus), chamomile (scentless chamomile, Matricaria inodora), speedwell (bird's-eye speedwell, Veronica persica), barley, spring (spring barley, Hordeum vulgare), wheat, spring (spring wheat, Triticum aestivum), buckwheat, wild (wild buckwheat, Polygonum convolvulus), mustard, wild (wild mustard, Sinapis arvensis), oat, wild (wild oat, Avena fatua), radish, wild (wild radish, Raphanus raphanistrum), windgrass (Apera spica-venti), Russian thistle (Salsola kali), barley, winter (winter barley, Hordeum vulgare), and wheat, winter (winter wheat, Triticum aestivum) were planted into a silt loam soil and treated preemergence with test chemicals formulated in a non-phytotoxic solvent mixture which included a surfactant.
(§2) At the same time, these species were planted in pots containing Redi-Earth® planting medium (Scotts Company, 14111 Scottslawn Road, Marysville, Ohio 43041) comprising spaghnum peat moss, vermiculite, wetting agent and starter nutrients and treated with postemergence applications of the test chemicals formulated in the same manner. Plants ranged in height from 2 to 18 cm (1- to 4-leaf stage). Treated plants and controls were maintained in a controlled growth environment for 14 to 21 days after which time all species were compared to controls and visually evaluated. Plant response ratings, summarized in Table D, are based on a scale of 0 to 100 where 0 is no effect and 100 is complete control. A dash (-) response means no test result.

oilseed rape = assay: Test D postemergence; assay type: in vivo, Brassica napus; details: scale 0 to 100
Text: as §1, §2

bluegrass = assay: Test D postemergence; assay type: in vivo, Poa annua; details: scale 0 to 100
Text: as §1, §2

field violet = assay: Test D preemergence; assay type: in vivo, Viola arvensis; details: for Plant response rating, Field Violet: Preemergence, scale 0 to 100
Text: as §1, §2

ryegrass, Italian [1] = assay: Test D postemergence; assay type: in vivo, Lolium multiflorum; details: scale 0 to 100
Text: as §1, §2

oat, wild = assay: Test D postemergence; assay type: in vivo, Avena fatua; details: scale 0 to 100
Text: as §1, §2

ryegrass, Italian [2] = assay: Test D preemergence; assay type: in vivo, Lolium multiflorum; details: for Plant response rating, Ryegrass, Italian: Preemergence, scale 0 to 100
Text: as §1, §2

barley, winter = assay: Test D preemergence; assay type: in vivo, Hordeum vulgare; details: for Plant response rating, Barley, Winter: Preemergence, scale 0 to 100
Text: as §1, §2

barley, spring = assay: Test D preemergence; assay type: in vivo, Hordeum vulgare; details: for Plant response rating, Barley, Spring: Preemergence, scale 0 to 100
Text: as §1, §2

field poppy = assay: Test D preemergence; assay type: in vivo, Papaver rhoeas; details: for Plant response rating, Field Poppy: Preemergence, scale 0 to 100
Text: as §1, §2

pigweed = assay: Test D preemergence; assay type: in vivo, Amaranthus retroflexus; details: Preemergence, scale 0 to 100
Text: as §1, §2

wheat, spring = assay: Test D postemergence; assay type: in vivo, Triticum aestivum; details: scale 0 to 100
Text: as §1, §2

wheat, winter = assay: Test D postemergence; assay type: in vivo, Triticum aestivum; details: scale 0 to 100
Text: as §1, §2

canarygrass = assay: Test D preemergence; assay type: in vivo, Phalaris minor; details: for Plant response rating, Canarygrass: Preemergence, scale 0 to 100
Text: as §1, §2

lambsquarters = assay: Test D preemergence; assay type: in vivo, Chenopodium album; details: for Plant response rating, Lambsquarters: Preemergence, scale 0 to 100
Text: as §1, §2

chickweed = assay: Test D postemergence; assay type: in vivo, Stellaria media; details: scale 0 to 100
Text: as §1, §2

kochia = assay: Test D postemergence; assay type: in vivo, Kochia scoparia; details: scale 0 to 100
Text: as §1, §2

radish, wild = assay: Test D preemergence; assay type: in vivo, Raphanus raphanistrum; details: for Plant response rating, Radish, Wild: Preemergence, scale 0 to 100
Text: as §1, §2

bromegrass, downy = assay: Test D preemergence; assay type: in vivo, Bromus tectorum; details: for Plant response rating, Bromegrass, Downy: Preemergence, scale 0 to 100
Text: as §1, §2

[3] = 16 g ai/ha, taken as preemergence

CCc1cc(C(=O)NOC(C)C)nn1Cc1cccc(OC(F)(F)F)c1 [Compound 70]
Plant response rating, Blackgrass (blackgrass; Postemergence, 16 g ai/ha): 0 | Blackgrass plant response rating (blackgrass; Postemergence, 31 g ai/ha): 0 | Blackgrass plant response rating (blackgrass; Postemergence, 125 g ai/ha): 0 | Blackgrass plant response rating (blackgrass; Postemergence, 250 g ai/ha): 0 | Blackgrass plant response rating (blackgrass; postemergence, 62 g ai/ha): 0 | Plant response rating, Oilseed Rape (oilseed rape; Postemergence, 16 g ai/ha): 20 | Oilseed Rape plant response rating (oilseed rape; Postemergence, 31 g ai/ha): 40 | Oilseed Rape plant response rating (oilseed rape; Postemergence, 125 g ai/ha): 60 | Oilseed Rape plant response rating (oilseed rape; Postemergence, 250 g ai/ha): 80 | Oilseed Rape plant response rating (oilseed rape; postemergence, 62 g ai/ha): 50 | Plant response rating, Bluegrass (bluegrass; Postemergence, 16 g ai/ha): 0 | Bluegrass plant response rating (bluegrass; Postemergence, 31 g ai/ha): 0 | Bluegrass plant response rating (bluegrass; Postemergence, 125 g ai/ha): 0 | Bluegrass plant response rating (bluegrass; Postemergence, 250 g ai/ha): 0 | Bluegrass plant response rating (bluegrass; postemergence, 62 g ai/ha): 0 | Plant response rating (scale 0 to 100), Field Violet (field violet; [3]): 0 | Plant response rating, Field Violet (field violet; 31 g ai/ha): 0 | Plant response rating, Field Violet (field violet; 62 g ai/ha): 0 | Plant response rating, Field Violet (field violet; 125 g ai/ha): 50 | Plant response rating, Field Violet (field violet; 250 g ai/ha): 50 | Plant response rating, Ryegrass, Italian (ryegrass, Italian [1]; Postemergence, 16 g ai/ha): 0 | Ryegrass, Italian plant response rating (ryegrass, Italian [1]; Postemergence, 31 g ai/ha): 0 | Ryegrass, Italian plant response rating (ryegrass, Italian [1]; Postemergence, 125 g ai/ha): 10 | Ryegrass, Italian plant response rating (ryegrass, Italian [1]; Postemergence, 250 g ai/ha): 15 | Ryegrass, Italian plant response rating (ryegrass, Italian [1]; postemergence, 62 g ai/ha): 0 | Plant response rating, Oat, Wild (oat, wild; Postemergence, 16 g ai/ha): 0 | Oat, Wild plant response rating (oat, wild; Postemergence, 31 g ai/ha): 0 | Oat, Wild plant response rating (oat, wild; Postemergence, 125 g ai/ha): 0 | Oat, Wild plant response rating (oat, wild; Postemergence, 250 g ai/ha): 10 | Oat, Wild plant response rating (oat, wild; postemergence, 62 g ai/ha): 0 | Plant response rating (scale 0 to 100), Ryegrass, Italian (ryegrass, Italian [2]; [3]): 0 | Plant response rating, Ryegrass, Italian (ryegrass, Italian [2]; 31 g ai/ha): 0 | Plant response rating, Ryegrass, Italian (ryegrass, Italian [2]; 62 g ai/ha): 0 | Plant response rating, Ryegrass, Italian (ryegrass, Italian [2]; 125 g ai/ha): 20 | Plant response rating, Ryegrass, Italian (ryegrass, Italian [2]; 250 g ai/ha): 75 | Plant response rating (scale 0 to 100), Barley, Winter (barley, winter; [3]): 0 | Plant response rating, Barley, Winter (barley, winter; 31 g ai/ha): 0 | Plant response rating, Barley, Winter (barley, winter; 62 g ai/ha): 0 | Plant response rating, Barley, Winter (barley, winter; 125 g ai/ha): 0 | Plant response rating, Barley, Winter (barley, winter; 250 g ai/ha): 10 | Plant response rating (scale 0 to 100), Barley, Spring (barley, spring; 16 g ai/ha, taken as preemergence, 0 = no effect, 100 = complete control): 0 | Plant response rating, Barley, Spring (barley, spring; 31 g ai/ha): 0 | Plant response rating, Barley, Spring (barley, spring; 62 g ai/ha): 0 | Plant response rating, Barley, Spring (barley, spring; 125 g ai/ha): 0 | Plant response rating, Barley, Spring (barley, spring; 250 g ai/ha): 15 | Plant response rating (scale 0 to 100), Field Poppy (field poppy; [3]): 20 | Plant response rating, Field Poppy (field poppy; 31 g ai/ha): 100 | Plant response rating, Field Poppy (field poppy; 62 g ai/ha): 100 | Plant response rating, Field Poppy (field poppy; 125 g ai/ha): 90 | Plant response rating, Field Poppy (field poppy; 250 g ai/ha): 100 | Plant response rating, Pigweed (pigweed; 62 g ai/ha): 0 | Plant response rating, Pigweed (pigweed; 250 g ai/ha): 75 | Plant response rating, Wheat, Spring (wheat, spring; Postemergence, 16 g ai/ha): 0 | Wheat, Spring plant response rating (wheat, spring; Postemergence, 31 g ai/ha): 5 | Wheat, Spring plant response rating (wheat, spring; Postemergence, 125 g ai/ha): 5 | Wheat, Spring plant response rating (wheat, spring; Postemergence, 250 g ai/ha): 10 | Wheat, Spring plant response rating (wheat, spring; postemergence, 62 g ai/ha): 5 | Plant response rating, Wheat, Winter (wheat, winter; Postemergence, 16 g ai/ha): 0 | Wheat, Winter plant response rating (wheat, winter; Postemergence, 31 g ai/ha): 0 | Wheat, Winter plant response rating (wheat, winter; Postemergence, 125 g ai/ha): 5 | Wheat, Winter plant response rating (wheat, winter; Postemergence, 250 g ai/ha): 10 | Wheat, Winter plant response rating (wheat, winter; postemergence, 62 g ai/ha): 5 | Plant response rating (scale 0 to 100), Canarygrass (canarygrass; [3]): 0 | Plant response rating, Canarygrass (canarygrass; 31 g ai/ha): 0 | Plant response rating, Canarygrass (canarygrass; 62 g ai/ha): 0 | Plant response rating, Canarygrass (canarygrass; 125 g ai/ha): 20 | Plant response rating, Canarygrass (canarygrass; 250 g ai/ha): 75 | Plant response rating (scale 0 to 100), Lambsquarters (lambsquarters; [3]): 0 | Plant response rating, Lambsquarters (lambsquarters; 31 g ai/ha): 0 | Plant response rating, Lambsquarters (lambsquarters; 62 g ai/ha): 0 | Plant response rating, Lambsquarters (lambsquarters; 125 g ai/ha): 100 | Plant response rating, Lambsquarters (lambsquarters; 250 g ai/ha): 100 | Plant response rating, Chickweed (chickweed; Postemergence, 16 g ai/ha): 30 | Chickweed plant response rating (chickweed; Postemergence, 31 g ai/ha): 30 | Chickweed plant response rating (chickweed; Postemergence, 125 g ai/ha): 70 | Chickweed plant response rating (chickweed; Postemergence, 250 g ai/ha): 85 | Chickweed plant response rating (chickweed; postemergence, 62 g ai/ha): 70 | Plant response rating, Kochia (kochia; Postemergence, 16 g ai/ha): 40 | Kochia plant response rating (kochia; Postemergence, 31 g ai/ha): 85 | Kochia plant response rating (kochia; Postemergence, 125 g ai/ha): 98 | Kochia plant response rating (kochia; Postemergence, 250 g ai/ha): 95 | Kochia plant response rating (kochia; postemergence, 62 g ai/ha): 70 | Plant response rating (scale 0 to 100), Radish, Wild (radish, wild; [3]): 0 | Plant response rating, Radish, Wild (radish, wild; 31 g ai/ha): 0 | Plant response rating, Radish, Wild (radish, wild; 62 g ai/ha): 0 | Plant response rating, Radish, Wild (radish, wild; 125 g ai/ha): 100 | Plant response rating, Radish, Wild (radish, wild; 250 g ai/ha): 100 | Plant response rating (scale 0 to 100), Bromegrass, Downy (bromegrass, downy; [3]): 0 | Plant response rating, Bromegrass, Downy (bromegrass, downy; 31 g ai/ha): 0 | Plant response rating, Bromegrass, Downy (bromegrass, downy; 62 g ai/ha): 0 | Plant response rating, Bromegrass, Downy (bromegrass, downy; 125 g ai/ha): 10 | Plant response rating, Bromegrass, Downy (bromegrass, downy; 250 g ai/ha): 20
